From the supplement of paper PMC11061612

Columns and labels:
[1] = tested on: BICR22 (Oral Cavity Carcinoma); assay: Bliss excess, mean over the matrix (fraction); higher = more synergy
Outline: (§1)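 Bliss excess equals the observed combination effect minus the expected value EA + EB − EA·EB, where EA and EB are the effects of each agent alone. Combination Emax is the second-highest inhibition within the matrix. Inhibition was scaled from CellTiter-Glo 2.0 luminescence, with 0 set by vehicle wells and 1 by blank wells, after 72 hours of two-drug dosing of cells plated in 1536-well plates.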

[2] = tested on: CAPAN-2 (Pancreatic Carcinoma); assay: as above
Outline: as §1

[3] = tested on: CCK-81 (Colorectal Carcinoma); assay: as above
Outline: as §1

[4] = tested on: COLO-320-HSR (Colorectal Carcinoma); assay: as above
Outline: as §1

[5] = tested on: ECC10 (Gastric Carcinoma); assay: as above
Outline: as §1

FU97 (Gastric Carcinoma) [6] = assay: as above
Outline: as §1

IGR-37 (Melanoma) [7] = assay: as above
Outline: as §1

[8] = tested on: KARPAS-422 (B-Cell Non-Hodgkin's Lymphoma); assay: as above
Outline: as §1

[9] = tested on: NCI-H1581 (Non-Small Cell Lung Carcinoma); assay: as above
Outline: as §1

[10] = tested on: NCI-H1666 (Lung Adenocarcinoma); assay: as above
Outline: as §1

[11] = tested on: NCI-H2066 (Squamous Cell Lung Carcinoma); assay: as above
Outline: as §1

[12] = tested on: NCI-H64 (Small Cell Lung Carcinoma); assay: as above
Outline: as §1

NY (Osteosarcoma) [13] = assay: as above
Outline: as §1

[14] = tested on: ONS-76 (Other Solid Carcinomas); assay: as above
Outline: as §1

[15] = tested on: PANC-10-05 (Pancreatic Carcinoma); assay: as above
Outline: as §1

[16] = tested on: TT (Thyroid Gland Carcinoma); assay: as above
Outline: as §1

U-2-OS (Osteosarcoma) [17] = assay: as above
Outline: as §1

[18] = tested on: VCaP (Prostate Carcinoma); assay: as above
Outline: as §1

[19] = tested on: BICR22 (Oral Cavity Carcinoma); assay: combination Emax (second highest fraction inhibited in the dose matrix, 72 h); higher = more inhibition; extreme values may be limits of the assay
Outline: as §1

[20] = tested on: CAPAN-2 (Pancreatic Carcinoma); assay: as above
Outline: as §1

[21] = tested on: CCK-81 (Colorectal Carcinoma); assay: as above
Outline: as §1

[22] = tested on: COLO-320-HSR (Colorectal Carcinoma); assay: as above
Outline: as §1

[23] = tested on: ECC10 (Gastric Carcinoma); assay: as above
Outline: as §1

FU97 (Gastric Carcinoma) [24] = assay: as above
Outline: as §1

IGR-37 (Melanoma) [25] = assay: as above
Outline: as §1

[26] = tested on: KARPAS-422 (B-Cell Non-Hodgkin's Lymphoma); assay: as above
Outline: as §1

[27] = tested on: NCI-H1581 (Non-Small Cell Lung Carcinoma); assay: as above
Outline: as §1

[28] = tested on: NCI-H1666 (Lung Adenocarcinoma); assay: as above
Outline: as §1

[29] = tested on: NCI-H2066 (Squamous Cell Lung Carcinoma); assay: as above
Outline: as §1

[30] = tested on: NCI-H64 (Small Cell Lung Carcinoma); assay: as above
Outline: as §1

NY (Osteosarcoma) [31] = assay: as above
Outline: as §1

[32] = tested on: ONS-76 (Other Solid Carcinomas); assay: as above
Outline: as §1

[33] = tested on: PANC-10-05 (Pancreatic Carcinoma); assay: as above
Outline: as §1

[34] = tested on: TT (Thyroid Gland Carcinoma); assay: as above
Outline: as §1

U-2-OS (Osteosarcoma) [35] = assay: as above
Outline: as §1

[36] = tested on: VCaP (Prostate Carcinoma); assay: as above
Outline: as §1

SMILES | Bliss excess [1] | Bliss excess [2] | Bliss excess [3] | Bliss excess [4] | Bliss excess [5] | Bliss excess (FU97 (Gastric Carcinoma) [6]) | Bliss excess (IGR-37 (Melanoma) [7]) | Bliss excess [8] | Bliss excess [9] | Bliss excess [10] | Bliss excess [11] | Bliss excess [12] | Bliss excess (NY (Osteosarcoma) [13]) | Bliss excess [14] | Bliss excess [15] | Bliss excess [16] | Bliss excess (U-2-OS (Osteosarcoma) [17]) | Bliss excess [18] | combination Emax [19] | combination Emax [20] | combination Emax [21] | combination Emax [22] | combination Emax [23] | combination Emax (FU97 (Gastric Carcinoma) [24]) | combination Emax (IGR-37 (Melanoma) [25]) | combination Emax [26] | combination Emax [27] | combination Emax [28] | combination Emax [29] | combination Emax [30] | combination Emax (NY (Osteosarcoma) [31]) | combination Emax [32] | combination Emax [33] | combination Emax [34] | combination Emax (U-2-OS (Osteosarcoma) [35]) | combination Emax [36]
C[C@@H](Oc1cc(-c2cnn(C3CCNCC3)c2)cnc1N)c1c(Cl)ccc(F)c1Cl [Crizotinib] + CC1=C(C(=CC=C1)Cl)NC(=O)C2=CN=C(S2)NC3=CC(=NC(=N3)C)N4CCN(CC4)CCO [Dasatinib] (first compound max 10 µM, 7x7, partner max 2 µM) | 0.0433 | 0.0443 | 0.0191 | -0.0425 | -0.0263 | -0.0237 | -0.0317 | 0.0411 | -0.0363 | -0.0103 | -0.0202 | -0.0238 | 0.0882 | 0.0996 | 0.0003 | -0.0751 | 0.0199 | -0.0665 | 0.89 | 0.78 | 0.892 | 0.699 | 0.679 | 0.446 | 0.645 | 0.886 | 0.359 | 0.807 | 0.587 | 0.594 | 0.519 | 0.894 | 0.813 | 0.274 | 0.617 | 0.587
C[C@@H](Oc1cc(-c2cnn(C3CCNCC3)c2)cnc1N)c1c(Cl)ccc(F)c1Cl [Crizotinib] + Cn1cnc2c(F)c(Nc3ccc(Br)cc3Cl)c(C(=O)NOCCO)cc21 [Selumetinib] (first compound max 10 µM, 7x7, partner max 10 µM) | -0.0493 | 0.0244 | -0.0256 | -0.0696 | -0.0116 | -0.0414 | 0.0066 | -0.063 | 0.0228 | -0.0892 | -0.0245 | -0.012 | -0.0158 | -0.0482 | 0.006 | 0.0207 | 0.0015 | -0.0622 | 0.281 | 0.639 | 0.794 | 0.614 | 0.858 | 0.319 | 0.922 | 0.723 | 0.519 | 0.503 | 0.513 | 0.56 | 0.279 | 0.65 | 0.643 | 0.479 | 0.831 | 0.652
CS(=O)(=O)CCNCc1ccc(-c2ccc3ncnc(Nc4ccc(OCc5cccc(F)c5)c(Cl)c4)c3c2)o1 [Lapatinib] + Cn1cnc2c(F)c(Nc3ccc(Br)cc3Cl)c(C(=O)NOCCO)cc21 [Selumetinib] (first compound max 10 µM, 7x7, partner max 10 µM) | 0.128 | 0.0147 | -0.0522 | 0.0181 | -0.0082 | -0.0116 | -0.0934 | 0.0289 | 0.031 | 0.064 | -0.0156 | -0.0224 | 0.0033 | -0.0123 | 0.0247 | -0.0416 | -0.0563 | -0.0677 | 0.924 | 0.424 | 0.944 | 0.264 | 0.951 | 0.906 | 0.856 | 0.562 | 0.395 | 0.839 | 0.338 | 0.14 | 0.329 | 0.748 | 0.556 | 0.305 | 0.647 | 0.182
O=C(c1cc(Cc2n[nH]c(=O)c3ccccc23)ccc1F)N1CCN(C(=O)C2CC2)CC1 [Olaparib] + CC1(C)CCC(CN2CCN(c3ccc(C(=O)NS(=O)(=O)c4ccc(NCC5CCOCC5)c([N+](=O)[O-])c4)c(Oc4cnc5[nH]ccc5c4)c3)CC2)=C(c2ccc(Cl)cc2)C1 [Venetoclax] (first compound max 10 µM, 7x7, partner max 1 µM) | -0.0428 | -0.0398 | -0.0382 | 0.0038 | 0.0155 | -0.0322 | 0.0143 | 0.0071 | -0.0035 | -0.0661 | -0.0521 | 0.0167 | 0.0029 | -0.014 | -0.059 | -0.0158 | -0.0331 | -0.0434 | 0.0823 | 0.0502 | 0.148 | 0.176 | 0.706 | 0.104 | 0.3 | 0.611 | 0.234 | 0.104 | 0.136 | 0.166 | 0.188 | 0.17 | 0.125 | 0.208 | 0.109 | 0.101
O=C(c1cc(Cc2n[nH]c(=O)c3ccccc23)ccc1F)N1CCN(C(=O)C2CC2)CC1 [Olaparib] + CN(CC[C@H](CSC1=CC=CC=C1)NC2=C(C=C(C=C2)S(=O)(=O)NC(=O)C3=CC=C(C=C3)N4CCC(CC4)[C@H](C5=CC=CC=C5C6=CC=C(C=C6)Cl)O)S(=O)(=O)C(F)(F)F)CCO [AZD4320] (first compound max 10 µM, 7x7, partner max 1 µM) | 0.0041 | -0.0461 | -0.0283 | 0.016 | 0.0135 | -0.0426 | 0.0028 | -0.0348 | 0.0118 | -0.0702 | -0.097 | -0.0325 | 0.0263 | -0.0216 | -0.0548 | 0.0271 | -0.0213 | -0.0444 | 0.255 | 0.462 | 0.124 | 0.19 | 1 | 0.212 | 0.275 | 0.925 | 0.3 | 0.124 | 0.351 | 0.95 | 0.195 | 0.181 | 0.164 | 0.538 | 0.202 | 0.128
O=C(c1cc(Cc2n[nH]c(=O)c3ccccc23)ccc1F)N1CCN(C(=O)C2CC2)CC1 [Olaparib] + COc1nnc2ccc(N3CCC(c4ccc(OCCN5CCN(C)C(=O)[C@H]5C)cc4)CC3)nn12 [AZD5153] (first compound max 10 µM, 7x7, partner max 1 µM) | -0.0477 | -0.0267 | -0.0643 | -0.0311 | -0.0196 | -0.0372 | -0.0984 | -0.0132 | 0.0078 | -0.0544 | -0.0865 | -0.0338 | -0.0877 | -0.0463 | -0.0072 | -0.0615 | -0.0312 | -0.082 | 0.0626 | 0.186 | 0.756 | 0.373 | 0.786 | 0.762 | 0.58 | 0.66 | 0.506 | 0.409 | 0.286 | 0.239 | 0.473 | 0.474 | 0.401 | 0.48 | 0.285 | 0.707
O=C(c1cc(Cc2n[nH]c(=O)c3ccccc23)ccc1F)N1CCN(C(=O)C2CC2)CC1 [Olaparib] + Cc1c2c(nn1C)CSCc1cc(n(C)n1)CSc1cc(c3ccccc3c1)OCCCc1c(C(=O)O)n(C)c3c-2c(Cl)ccc13 [AZD5991] (first compound max 10 µM, 7x7, partner max 1 µM) | -0.0317 | -0.0426 | -0.0311 | -0.0304 | 0.0111 | -0.0169 | -0.0419 | -0.0071 | 0.0183 | -0.0669 | -0.0539 | 0.0017 | -0.0239 | -0.038 | -0.0739 | -0.0273 | -0.0394 | -0.0247 | 0.108 | 0.044 | 0.785 | 0.836 | 0.738 | 0.207 | 0.151 | 0.967 | 0.972 | 0.111 | 0.2 | 0.148 | 0.426 | 0.17 | 0.159 | 0.168 | 0.0686 | 0.958
N#Cc1cnc(Nc2cc(NC[C@H]3CNCCO3)c(C(F)(F)F)cn2)cn1 [SRA737] + C=CCn1c(=O)c2cnc(Nc3ccc(N4CCN(C)CC4)cc3)nc2n1-c1cccc(C(C)(C)O)n1 [AZD1775] (first compound max 10 µM, partner max 1 µM) | 0.177 | -0.0431 | 0.0173 | 0.116 | 0.0773 | 0.0097 | 0.0182 | 0.0952 | 0.0425 | -0.0345 | 0.0147 | 0.0534 | 0.0355 | 0.11 | -0.101 | 0.0428 | 0.0962 | 0.0327 | 0.836 | 0.306 | 0.916 | 0.706 | 0.823 | 0.366 | 0.789 | 0.817 | 0.67 | 0.253 | 0.426 | 0.865 | 0.673 | 0.824 | 0.42 | 0.352 | 0.877 | 0.66
